Measurements reported in ChEMBL document CHEMBL1147193, “New 5-substituted thiazolo[3,2-b][1,2,4]triazol-6-ones: synthesis and anticancer evaluation” (2007).

Tests used:
Assay type in all cases: functional
[1] = tested on: NCI-H460; experiment: Anticancer activity against human NCI-H460 cells assessed as growth of cells at 100 uM relative to untreated cells
[2] = tested on: MCF7; experiment: Anticancer activity against human MCF7 cells assessed as growth of cells at 100 uM relative to untreated cells
[3] = tested on: HL-60; experiment: Growth inhibition of human HL60 cells after 48 hrs by SRB protein assay; conditions: HL-60, 48 h
[4] = tested on: MOLT-4; experiment: Growth inhibition of human MOLT4 cells after 48 hrs by SRB protein assay; conditions: MOLT-4, 48 h; for TGI: read-out: Log TGI (converted)
[5] = tested on: EKVX; experiment: Growth inhibition of human EKVX cells after 48 hrs by SRB protein assay; conditions: for TGI: read-out: Log TGI (converted)
[6] = tested on: HCT-116; experiment: Growth inhibition of human HCT116 cells after 48 hrs by SRB protein assay; conditions: HCT-116, 48 h; for TGI: read-out: Log TGI (converted)
[7] = tested on: KM12; experiment: Growth inhibition of human KM12 cells after 48 hrs by SRB protein assay; conditions: KM12, 48 h; for TGI: read-out: Log TGI (converted)
[8] = tested on: SF-268; experiment: Growth inhibition of human SF268 cells after 48 hrs by SRB protein assay; conditions: SF-268, 48 h; for TGI: read-out: Log TGI (converted)
[9] = tested on: SF-295; experiment: Growth inhibition of human SF295 cells after 48 hrs by SRB protein assay; conditions: SF-295, 48 h; for TGI: read-out: Log TGI (converted)
[10] = tested on: SNB-19; experiment: Growth inhibition of human SNB19 cells after 48 hrs by SRB protein assay; conditions: SNB-19, 48 h; for TGI: read-out: Log TGI (converted)
[11] = tested on: U-251; experiment: Growth inhibition of human U251 cells after 48 hrs by SRB protein assay; conditions: U-251, 48 h; for TGI: read-out: Log TGI (converted)
[12] = tested on: LOX IMVI; experiment: Growth inhibition of human LOX IMVI cells after 48 hrs by SRB protein assay; conditions: for TGI: read-out: Log TGI (converted)
[13] = tested on: SK-MEL-28; experiment: Growth inhibition of human SK-MEL-28 cells after 48 hrs by SRB protein assay; conditions: SK-MEL-28, 48 h; for TGI: read-out: Log TGI (converted)
[14] = tested on: PC-3; experiment: Growth inhibition of human PC3 cells after 48 hrs by SRB protein assay; conditions: PC-3, 48 h; for TGI: read-out: Log TGI (converted)
[15] = tested on: SK-OV-3; experiment: Growth inhibition of human SK-OV-3 cells after 48 hrs by SRB protein assay; conditions: SK-OV-3, 48 h; for TGI: read-out: Log TGI (converted)
[16] = tested on: NCI-H23; experiment: Growth inhibition of human NCI-H23 cells after 48 hrs by SRB protein assay; conditions: NCI-H23, 48 h; for TGI: read-out: Log TGI (converted)
[17] = tested on: SNB-75; experiment: Growth inhibition of human SNB75 cells after 48 hrs by SRB protein assay; conditions: SNB-75, 48 h
[18] = tested on: UO-31; experiment: Growth inhibition of human UO31 cells after 48 hrs by SRB protein assay; conditions: UO-31, 48 h; for TGI: read-out: Log TGI (converted)
[19] = Growth inhibition of human MDA-MB-231/ATCC cells after 48 hrs by SRB protein assay; conditions: MDA-MB-231, 48 h; for TGI: read-out: Log TGI (converted)
[20] = tested on: A498; experiment: Growth inhibition of human A498 cells after 48 hrs by SRB protein assay; conditions: A498, 48 h
[21] = tested on: SF-539; experiment: Growth inhibition of human SF539 cells after 48 hrs by SRB protein assay; conditions: SF-539, 48 h
[22] = tested on: DU-145; experiment: Growth inhibition of human DU145 cells after 48 hrs by SRB protein assay; conditions: DU-145, 48 h

GI50 [6] [µM]	GI50 [11] [µM]	GI50 [13] [µM]	GI50 [14] [µM]	SMILES	Activity [1] [%]	Activity [2] [%]	TGI [5] [µM]	TGI [6] [µM]	GI50 [7] [µM]	TGI [7] [µM]	GI50 [8] [µM]	TGI [8] [µM]	GI50 [9] [µM]	TGI [9] [µM]	GI50 [10] [µM]	TGI [10] [µM]	TGI [11] [µM]	GI50 [12] [µM]	TGI [12] [µM]	TGI [13] [µM]	further results
15.8	> 100	91.2	18.2	CCOC(=O)c1ccc(NC(=O)CC2Sc3ncnn3C2=O)cc1 (stereo not given)	0	0	69.2	29.5	> 100	> 100	> 100	> 100	> 100	> 100	> 100	> 100	> 100	18.2	35.5	> 100	GI50 [3]: 46.8 µM; TGI ([3]; read-out: Log TGI (converted)): > 100 µM; GI50 [4]: 33.9 µM; TGI [4]: 66.1 µM; GI50 [5]: 28.2 µM; TGI [14]: 40.7 µM
32.4	> 100	> 100	72.4	O=C(CC1Sc2ncnn2C1=O)Nc1ccccc1 (stereo not given)	0	0	64.6	> 100	> 100	> 100	> 100	> 100	> 100	> 100	> 100	> 100	> 100	25.7	53.7	> 100	GI50 [15]: > 100 µM; TGI [15]: > 100 µM; GI50 [16]: 0.115 µM; TGI [16]: 9.12 µM; GI50 [17]: 31.6 µM; TGI ([17]; read-out: Log TGI (converted)): 85.1 µM; GI50 [18]: 25.1 µM; TGI [18]: 57.5 µM; TGI [14]: > 100 µM; GI50 [19]: 19.1 µM; TGI [19]: 38.9 µM
20	18.2	22.9	55	O=C(CC1Sc2ncnn2C1=O)Nc1ccc(Cl)cc1 (stereo not given)	0	0	> 100	30.9	> 100	> 100	> 100	> 100	> 100	> 100	> 100	> 100	33.9	20.4	45.7	57.5	GI50 [15]: > 100 µM; TGI [15]: > 100 µM; GI50 [20]: > 100 µM; TGI ([20]; read-out: Log TGI (converted)): > 100 µM; GI50 [16]: 23.4 µM; TGI [16]: 70.8 µM; GI50 [4]: 20 µM; TGI [4]: 47.9 µM; GI50 [5]: > 100 µM; GI50 [21]: 31.6 µM; TGI ([21]; read-out: Log TGI (converted)): 74.1 µM; GI50 [18]: 22.9 µM; TGI [18]: 45.7 µM; TGI [14]: > 100 µM; GI50 [22]: > 100 µM; TGI ([22]; read-out: Log TGI (converted)): > 100 µM; GI50 [19]: 31.6 µM; TGI [19]: 83.2 µM
